Drawing on PubChem BioAssay (NCI), this text covers TGI and GI50 for 15 compounds.

Structures are written as SMILES.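 Method: 48-hour compound exposure of cells in 96-well plates, five concentrations, linear interpolation of endpoints. Abbreviation: GI50, concentration required for 50% inhibition of growth. The concentration for full growth arrest is given as TGI.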

Test systems include MDA-N; MOLT-4 leukemia; UACC-62 melanoma; RXF 393 renal; SF-539 CNS; SF-268 CNS; NCI-H460 lung; DU-145 prostate; HCT-15 colon; HL-60(TB) leukemia.
Assay in all cases: NCI tumour cell line growth inhibition, 48 h

As for `COC(=O)CCC(=O)c1ccc2c(c1)CC1(Cc3ccccc3C1)C2`, the TGI is over 100 µM in the experiment with MDA-N; 52.6 µM in the experiment on MOLT-4 leukemia; over 100 µM with UACC-62 melanoma; over 100 µM with RXF 393 renal; over 100 µM in the experiment on SF-539 CNS.
`COc1ccc(-c2nc3ccccc3c(=O)[nH]2)cc1OC`: the TGI with SF-268 CNS is 60 µM; in the experiment on MDA-N it was over 100 µM; in the experiment with MOLT-4 leukemia, over 100 µM; with UACC-62 melanoma it was over 100 µM; with NCI-H460 lung, over 100 µM; in the experiment on RXF 393 renal, 68.1 µM. Further, the TGI in the experiment with SF-539 CNS is 80.5 µM; in the experiment with DU-145 prostate, over 100 µM; in the experiment on HCT-15 colon it was over 100 µM.
Regarding `c1ccc2c[n+](Cc3ccnc4ccccc34)ccc2c1`, the TGI in the experiment on SF-268 CNS, in the experiment with MDA-N, in the experiment with MOLT-4 leukemia, with UACC-62 melanoma, with NCI-H460 lung and in the experiment on RXF 393 renal was over 100 µM each time. Moreover, the TGI with SF-539 CNS, in the experiment with DU-145 prostate and in the experiment on HCT-15 colon was over 100 µM throughout.
Regarding `Nc1nc(=O)n(C2CC(O)C(CO)O2)c2nc(-c3ccc(-c4ccccc4)cc3)cnc12` (stereo unspecified), the TGI was 79 µM with SF-268 CNS; over 100 µM with MDA-N; 76 µM in the experiment on MOLT-4 leukemia; 61.1 µM in the experiment on UACC-62 melanoma; over 100 µM in the experiment on NCI-H460 lung; over 100 µM in the experiment with RXF 393 renal. Besides, the TGI in the experiment on SF-539 CNS, in the experiment with DU-145 prostate and in the experiment on HCT-15 colon was over 100 µM in each case.
With `COc1cc(/C=C2\CCCC3=C2N=C2SC=NN2C3c2cc(OC)c(OC)c(OC)c2)cc(OC)c1OC` (stereo unspecified), the GI50 was 3.48 µM in the experiment on SF-268 CNS; 2.93 µM in the experiment on HL-60(TB) leukemia; 3.06 µM in the experiment with MOLT-4 leukemia; 1.68 µM with UACC-62 melanoma; 2.2 µM in the experiment on RXF 393 renal; 2.9 µM in the experiment with SF-539 CNS. The GI50 in the experiment with DU-145 prostate was 3.97 µM; in the experiment on HCT-15 colon, 2.25 µM. For the same compound, the TGI with SF-268 CNS is over 100 µM; with HL-60(TB) leukemia, 9.49 µM; in the experiment with UACC-62 melanoma, 3.66 µM; in the experiment with RXF 393 renal it was 4.74 µM; in the experiment with SF-539 CNS, over 100 µM; with DU-145 prostate, over 100 µM. This compound also showed a TGI with HCT-15 colon of 5.91 µM.
In the case of `C[C@H](OC(=O)/C=C/c1ccc(O)c(O)c1)[C@H](C)OC(=O)/C=C/c1ccc(O)c(O)c1`, the TGI with SF-268 CNS was 34.5 µM; with MDA-N, 18.4 µM; in the experiment with MOLT-4 leukemia, over 100 µM; in the experiment with UACC-62 melanoma it was 12.6 µM; in the experiment with NCI-H460 lung, over 100 µM; in the experiment on RXF 393 renal, 28.5 µM. For the same compound, the TGI was over 100 µM in the experiment with SF-539 CNS, 39.3 µM in the experiment with DU-145 prostate and 25.9 µM with HCT-15 colon.
`C=C1[C@@H]2CCC(C)(C)[C@H]1CCC(=O)[C@@H]2C(=O)OC`: the TGI in the experiment with SF-268 CNS, in the experiment with HL-60(TB) leukemia, with MOLT-4 leukemia, with UACC-62 melanoma, in the experiment with NCI-H460 lung and in the experiment on RXF 393 renal was over 100 µM each time. Besides, the TGI with SF-539 CNS and in the experiment with HCT-15 colon was over 100 µM throughout.
For the compound `O=C1N(c2ccccc2)N=C2c3ccncc3C3=NN(c4ccccc4)C(=O)C123` (stereo unspecified), the TGI in the experiment with SF-268 CNS was over 100 µM; in the experiment with HL-60(TB) leukemia it was over 100 µM; with MOLT-4 leukemia, over 100 µM; with UACC-62 melanoma it was over 57.1 µM; in the experiment with NCI-H460 lung it was over 100 µM; with RXF 393 renal, over 100 µM. Moreover, the TGI in the experiment with SF-539 CNS was over 46.8 µM; with DU-145 prostate, over 100 µM; in the experiment on HCT-15 colon, over 100 µM.
Take `Cc1cc(NS(=O)(=O)c2ccc(N=Nc3c(Nc4ccccc4)nn(-c4ccc(S(=O)(=O)Nc5ccncn5)cc4)c3C)cc2)no1`: the TGI in the experiment with MDA-N, with MOLT-4 leukemia, with UACC-62 melanoma, in the experiment with SF-539 CNS, in the experiment with DU-145 prostate and in the experiment on HCT-15 colon was over 100 µM each time.
Regarding `COc1cc(C2C(Cl)C(=O)N2NC(=O)c2ccccc2O)cc(OC)c1OC` (stereo unspecified), the TGI in the experiment with SF-268 CNS was over 10 µM; in the experiment on HL-60(TB) leukemia it was 5.96 µM; in the experiment with MOLT-4 leukemia, over 10 µM; with UACC-62 melanoma, over 10 µM; in the experiment with NCI-H460 lung, over 10 µM; in the experiment on RXF 393 renal, over 10 µM. For the same compound, the TGI is over 10 µM in the experiment on SF-539 CNS and 1.91 µM in the experiment on DU-145 prostate.
Take `Cc1ccc(S(=O)(=O)N/N=C2/C3CC4CCC2C4C3)cc1` (stereo unspecified): the TGI in the experiment with SF-268 CNS, with MDA-N, in the experiment on UACC-62 melanoma, in the experiment on NCI-H460 lung, with RXF 393 renal and with SF-539 CNS was over 100 µM each time. For the same compound, the TGI in the experiment on DU-145 prostate and in the experiment on HCT-15 colon was over 100 µM in each case.
Turning to `CSc1nnc2n1-c1ccccc1SCC2`, the TGI in the experiment on SF-268 CNS, in the experiment on HL-60(TB) leukemia, with MOLT-4 leukemia, with UACC-62 melanoma, in the experiment on NCI-H460 lung and in the experiment on RXF 393 renal was over 100 µM throughout. Besides, the TGI with SF-539 CNS and in the experiment on HCT-15 colon was over 100 µM in each case.
Consider `O=CN/C=C\c1cc(O)ccc1O`, for which the TGI in the experiment with SF-268 CNS was over 57.8 µM; with HL-60(TB) leukemia it was 47.8 µM; in the experiment on MOLT-4 leukemia, 70.6 µM; in the experiment with UACC-62 melanoma, 17.5 µM; in the experiment with NCI-H460 lung it was over 56.2 µM; with SF-539 CNS, over 49.6 µM. In the experiment on HCT-15 colon, this compound came in with a TGI of 23.7 µM.
As for `COc1ccc([C@H]2C=C(c3cc(F)c(Cl)cc3Cl)N=c3s/c(=C\c4ccc(-c5ccc(Cl)cc5Cl)o4)c(=O)n32)cc1`, the TGI in the experiment on SF-268 CNS, with MDA-N, in the experiment with MOLT-4 leukemia, in the experiment with UACC-62 melanoma, in the experiment with NCI-H460 lung and in the experiment on RXF 393 renal was over 100 µM each time. For the same compound, the TGI in the experiment on SF-539 CNS, in the experiment with DU-145 prostate and with HCT-15 colon was over 100 µM each time.
For the compound `C=C(C)[C@H]1C=C[C@@H](OC(C)=O)[C@@]2(COC(C)=O)[C@H](OC(=O)CCC)[C@H]3[C@@H](OC(C)=O)[C@@H](C)C[C@]3(O)C(=O)[C@@](C)(OC(C)=O)[C@H]12`, the TGI in the experiment on SF-268 CNS, in the experiment on HL-60(TB) leukemia, in the experiment on MOLT-4 leukemia, in the experiment on UACC-62 melanoma, in the experiment on NCI-H460 lung and in the experiment with RXF 393 renal was over 100 µM each time. This compound also came in with a TGI in the experiment on HCT-15 colon of over 100 µM.
